Broadly, the IC50 is the point on the concentration scale where inhibition reaches its midpoint.

This is an account of results in patent US9926281B2 (priority 2014, dated 2018).

Experiment [1] concerns the target human TACE (Homo sapiens (Human), UniProt P78536). Particulars: read-out: TACE potency IC50.
The target in experiment [2] is human ADAMTS-5 (Homo sapiens (Human), UniProt Q9UNA0). Conditions: read-out: hADAMTS-5 potency IC50.
Chain of human ADAMTS-5 (Q9UNA0 262-930): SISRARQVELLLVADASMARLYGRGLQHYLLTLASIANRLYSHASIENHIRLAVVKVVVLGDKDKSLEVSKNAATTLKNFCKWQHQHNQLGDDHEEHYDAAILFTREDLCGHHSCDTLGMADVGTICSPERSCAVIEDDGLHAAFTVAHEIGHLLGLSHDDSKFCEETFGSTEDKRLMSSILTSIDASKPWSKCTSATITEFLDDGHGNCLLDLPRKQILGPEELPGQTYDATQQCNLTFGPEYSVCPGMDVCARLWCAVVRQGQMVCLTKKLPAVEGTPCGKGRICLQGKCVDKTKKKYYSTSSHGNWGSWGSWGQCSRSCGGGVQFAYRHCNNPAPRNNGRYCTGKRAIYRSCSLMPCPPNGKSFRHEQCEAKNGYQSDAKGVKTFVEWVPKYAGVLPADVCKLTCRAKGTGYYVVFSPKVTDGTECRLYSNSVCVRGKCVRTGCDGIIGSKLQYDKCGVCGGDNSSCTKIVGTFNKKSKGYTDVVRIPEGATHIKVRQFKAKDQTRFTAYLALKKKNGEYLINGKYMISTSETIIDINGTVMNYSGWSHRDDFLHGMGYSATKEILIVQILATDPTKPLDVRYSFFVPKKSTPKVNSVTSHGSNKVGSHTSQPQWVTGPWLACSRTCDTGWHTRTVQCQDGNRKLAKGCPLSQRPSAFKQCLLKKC
Procedure: Finally, the fluorescence is read on the Envision (Perkin Elmer) after an incubation of 90 min at 37° C.

Chain of human TACE (P78536 whole entry, looked up, change not shown): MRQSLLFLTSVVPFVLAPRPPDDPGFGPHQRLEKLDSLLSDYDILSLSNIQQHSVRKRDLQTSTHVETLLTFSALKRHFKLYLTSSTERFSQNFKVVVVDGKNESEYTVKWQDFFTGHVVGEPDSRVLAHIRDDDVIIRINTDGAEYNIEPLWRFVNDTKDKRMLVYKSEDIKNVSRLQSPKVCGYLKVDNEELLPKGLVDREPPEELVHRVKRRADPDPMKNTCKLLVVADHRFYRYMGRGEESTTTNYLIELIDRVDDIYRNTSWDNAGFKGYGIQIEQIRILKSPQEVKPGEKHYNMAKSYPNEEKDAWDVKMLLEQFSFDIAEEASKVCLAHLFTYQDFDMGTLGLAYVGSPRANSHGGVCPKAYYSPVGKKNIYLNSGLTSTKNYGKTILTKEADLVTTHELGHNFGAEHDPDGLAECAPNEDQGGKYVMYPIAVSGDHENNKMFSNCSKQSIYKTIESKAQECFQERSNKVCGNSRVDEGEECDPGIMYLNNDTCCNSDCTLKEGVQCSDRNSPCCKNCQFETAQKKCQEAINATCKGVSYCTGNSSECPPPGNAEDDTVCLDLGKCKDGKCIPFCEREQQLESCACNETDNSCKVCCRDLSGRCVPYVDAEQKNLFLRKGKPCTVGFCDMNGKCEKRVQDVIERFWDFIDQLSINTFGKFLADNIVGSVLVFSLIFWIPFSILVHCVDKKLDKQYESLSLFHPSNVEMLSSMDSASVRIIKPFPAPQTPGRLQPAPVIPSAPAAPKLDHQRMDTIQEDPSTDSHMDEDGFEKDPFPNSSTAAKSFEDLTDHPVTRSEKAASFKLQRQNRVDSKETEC

With `C[C@H]1CN(C(=O)CCC2(C3CC3)NC(=O)NC2=O)CCN1c1ccc(F)c(-c2cn[nH]c2)c1` (stereo partly drawn) [compound 340, 5-cyclopropyl-5-[3-[(3S)-4-[4-fluoro-3-(1H-pyrazol-4-yl)phenyl]-3-methyl-piperazin-1-yl]-3-oxo-propyl]imidazolidine-2,4-dione], the IC50 in experiment [1] was above 4 µM; in experiment [2] it was 155 nM.

Take `CC(CC1(c2ccccn2)NC(=O)NC1=O)C(=O)N1CCN(c2cc(Cl)cc(Cl)c2)[C@@H](C)C1` (stereo partly drawn) [compound 442, 5-(3-((S)-4-(3,5-dichlorophenyl)-3-methylpiperazin-1-yl)-2-methyl-3-oxopropyl)-5-(pyridin-2-yl)imidazolidine-2,4-dione]: the IC50 was 0.789 µM in experiment [1] and 24 nM in experiment [2].

`COC[C@]1(CC(C)C(=O)N2CCN(c3cc(F)cc(-c4cn[nH]c4)c3)[C@@H](C)C2)NC(=O)NC1=O` (stereo partly drawn) [compound 376, 5-[3-[(3S)-4-[3-fluoro-5-(1H-pyrazol-4-yl)phenyl]-3-methyl-piperazin-1-yl]-2-methyl-3-oxo-propyl]-5-(methoxymethyl)imidazolidine-2,4-dione]: the IC50 was 2.43 µM in experiment [1] and 52 nM in experiment [2].

Regarding `C[C@H]1CN(C(=O)CCC2(C3CC3)NC(=O)NC2=O)CCN1c1cccnn1` (stereo partly drawn) [Cpd 302, 5-cyclopropyl-5-[3-(3S)-3-methyl-4-pyridazin-3-yl-piperazin-1-yl-3-oxo-propyl]imidazolidine-2,4-dione], the IC50 was above 20 µM in experiment [1] and 776 nM in experiment [2].

With `CC(CC1(C)NC(=O)NC1=O)C(=O)N1CCN(c2cccnc2)[C@@H](C)C1` (stereo partly drawn) [compound 275, 5-methyl-5-[2-methyl-3-[(3S)-3-methyl-4-(3-pyridyl)piperazin-1-yl]-3-oxo-propyl]imidazolidine-2,4-dione], the IC50 in experiment [1] is above 20 µM; in experiment [2] it was 266 nM.

Take `CCC1(CC(C)C(=O)N2CCN(c3ccc(F)c(Cl)c3)[C@@H](C)C2)NC(=O)NC1=O` (stereo partly drawn) [compound 444, 5-(3-((S)-4-(3-chloro-4-fluorophenyl)-3-methylpiperazin-1-yl)-2-methyl-3-oxopropyl)-5-ethylimidazolidine-2,4-dione]: the IC50 is above 4 µM in experiment [1] and 25 nM in experiment [2].

For `C[C@H]1CN(C(=O)CCC2(c3cocn3)NC(=O)NC2=O)CCN1c1cc(Cl)cc(Cl)c1` (stereo partly drawn) [compound 465, 5-[3-[(3S)-4-(3,5-dichlorophenyl)-3-methyl-piperazin-1-yl]-3-oxo-propyl]-5-oxazol-4-yl-imidazolidine-2,4-dione], the values for the IC50 in experiment [1] and in experiment [2] were 3.5 µM and 62 nM, respectively.

`C[C@H]1CN(C(=O)CCC2(c3cnccn3)NC(=O)NC2=O)CCN1c1cc(Cl)cc(Cl)c1` (stereo partly drawn) [compound 461, 5-[3-[(3S)-4-(3,5-dichlorophenyl)-3-methyl-piperazin-1-yl]-3-oxo-propyl]-5-pyrazin-2-yl-imidazolidine-2,4-dione]: the results for the half-inhibitory concentration (IC50) in experiment [1] and in experiment [2] were 2.54 µM and 39 nM, respectively.

As for `C[C@H]1CN(C(=O)CCC2(C3CC3)NC(=O)NC2=O)CCN1c1ccnc(Cl)n1` (stereo partly drawn) [compound 301, 5-[3-[(3S)-4-(2-chloropyrimidin-4-yl)-3-methyl-piperazin-1-yl]-3-oxo-propyl]-5-cyclopropyl-imidazolidine-2,4-dione], the IC50 was above 20 µM in experiment [1] and above 20000 nM in experiment [2].

For `C[C@H]1CN(C(=O)CCC2(C3CC3)NC(=O)NC2=O)CCN1c1cccc(-c2cncc(Cl)c2)c1` (stereo partly drawn) [compound 322, 5-[3-[(3S)-4-[3-(5-chloro-3-pyridyl)phenyl]-3-methyl-piperazin-1-yl]-3-oxo-propyl]-5-cyclopropyl-imidazolidine-2,4-dione], the IC50 in experiment [1] is above 4 µM; in experiment [2], 237 nM.

Regarding `C[C@H]1CN(C(=O)CCC2(c3ncccn3)NC(=O)NC2=O)CCN1c1ccc(Cl)c(Cl)c1` (stereo partly drawn) [compound 462, 5-[3-[(3S)-4-(3,4-dichlorophenyl)-3-methyl-piperazin-1-yl]-3-oxo-propyl]-5-pyrimidin-2-yl-imidazolidine-2,4-dione], the IC50 in experiment [1] is above 4 µM; in experiment [2], 22 nM.

On to `C[C@H]1CN(C(=O)CCC2(C3CC3)NC(=O)NC2=O)CCN1c1cncnc1` (stereo partly drawn) [compound 304, 5-cyclopropyl-5-[3-[(3S)-3-methyl-4-pyrimidin-5-yl-piperazin-1-yl]-3-oxo-propyl]imidazolidine-2,4-dione], for which the IC50 in experiment [1] is above 20 µM; in experiment [2], above 4000 nM.

In the case of `Cc1cc(N2CCN(C(=O)CCC3(C4CC4)NC(=O)NC3=O)C[C@@H]2C)ccc1F` (stereo partly drawn) [compound 298, 5-cyclopropyl-5-[3-[(3S)-4-(4-fluoro-3-methyl-phenyl)-3-methyl-piperazin-1-yl]-3-oxo-propyl]imidazolidine-2,4-dione], the results for the IC50 in experiment [1] and in experiment [2] were above 20 µM and 192 nM, respectively.

In the case of `C[C@H]1CN(C(=O)CCC2(c3cnccn3)NC(=O)NC2=O)CCN1c1ccc(F)c(Cl)c1` (stereo partly drawn) [compound 349, 5-[3-[(3S)-4-(3-chloro-4-fluoro-phenyl)-3-methyl-piperazin-1-yl]-3-oxo-propyl]-5-pyrazin-2-yl-imidazolidine-2,4-dione], the IC50 was above 4 µM in experiment [1] and 62 nM in experiment [2].

As for `C[C@H]1CN(C(=O)CCC2(c3cnccn3)NC(=O)NC2=O)CCN1c1ccc(Cl)c(Cl)c1` (stereo partly drawn) [compound 460, 5-[3-[(3S)-4-(3,4-dichlorophenyl)-3-methyl-piperazin-1-yl]-3-oxo-propyl]-5-pyrazin-2-yl-imidazolidine-2,4-dione], the IC50 in experiment [1] was above 4 µM; in experiment [2], 30 nM.

With `C[C@H]1CN(C(=O)CCC2(C3CC3)NC(=O)NC2=O)CCN1c1ccc(Cl)nn1` (stereo partly drawn) [compound 285, 5-[3-[(3S)-4-(6-chloropyridazin-3-yl)-3-methyl-piperazin-1-yl]-3-oxo-propyl]-5-cyclopropyl-imidazolidine-2,4-dione], the IC50 in experiment [1] is above 4 µM; in experiment [2] it was 892 nM.

For `CC(CC1(C)NC(=O)NC1=O)C(=O)N1C[C@@H](C)N(c2cc(Cl)cc(Cl)c2)[C@@H](C)C1` (stereo partly drawn) [compound 243, 5-[3-[(3R,5S)-4-(3,5-dichlorophenyl)-3,5-dimethyl-piperazin-1-yl]-2-methyl-3-oxo-propyl]-5-methyl-imidazolidine-2,4-dione], the IC50 is above 19.5 µM in experiment [1] and above 3890 nM in experiment [2].

As to `C[C@H]1CN(C(=O)CCC2(c3cocn3)NC(=O)NC2=O)CCN1c1cc(F)cc(F)c1` (stereo partly drawn) [compound 362, 5-[3-[(3S)-4-(3,5-difluorophenyl)-3-methyl-piperazin-1-yl]-3-oxo-propyl]-5-oxazol-4-yl-imidazolidine-2,4-dione], the values for the IC50 in experiment [1] and in experiment [2] were above 20 µM and 50 nM, respectively.

Regarding `Cc1cc(-c2cccc(N3CCN(C(=O)CCC4(C5CC5)NC(=O)NC4=O)C[C@@H]3C)c2)ccn1` (stereo partly drawn) [compound 329, 5-cyclopropyl-5-[3-[(3S)-3-methyl-4-[3-(2-methyl-4-pyridyl)phenyl]piperazin-1-yl]-3-oxo-propyl]imidazolidine-2,4-dione], the IC50 is above 20 µM in experiment [1] and 134 nM in experiment [2].

As to `Cc1cccc(C2(CCC(=O)N3CCN(c4ccc(Cl)cc4)[C@@H](C)C3)NC(=O)NC2=O)n1` (stereo partly drawn) [compound 312, 5-[3-[(3S)-4-(4-chlorophenyl)-3-methyl-piperazin-1-yl]-3-oxo-propyl]-5-(6-methyl-2-pyridyl)imidazolidine-2,4-dione], the IC50 was 3.68 µM in experiment [1] and 40 nM in experiment [2].

As to `C[C@H]1CN(C(=O)C(CO)CC2(C)NC(=O)NC2=O)CCN1c1cccc(F)c1` (stereo partly drawn) [Cpd 268, 5-[3-[(3S)-4-(3-fluorophenyl)-3-methyl-piperazin-1-yl]-2-(hydroxymethyl)-3-oxo-propyl]-5-methyl-imidazolidine-2,4-dione], the IC50 in experiment [1] is above 4 µM; in experiment [2], 62 nM.

In the case of `COC(CC1(C)NC(=O)NC1=O)C(=O)N1CCN(c2ccc(F)c(Cl)c2)[C@@H](C)C1` (stereo partly drawn) [compound 450, 5-(3-((S)-4-(3-chloro-4-fluorophenyl)-3-methylpiperazin-1-yl)-2-methoxy-3-oxopropyl)-5-methylimidazolidine-2,4-dione], the IC50 in experiment [1] was above 20 µM; in experiment [2] it was 58 nM.

Consider `Cc1ccc(N2CCN(C(=O)CCC3(C4CC4)NC(=O)NC3=O)C[C@@H]2C)cc1F` (stereo partly drawn) [compound 299, 5-cyclopropyl-5-[3-[(3S)-4-(3-fluoro-4-methyl-phenyl)-3-methyl-piperazin-1-yl]-3-oxo-propyl]imidazolidine-2,4-dione], for which the results for the IC50 in experiment [1] and in experiment [2] were above 20 µM and 114 nM, respectively.

`Cc1cccc(C2(CCC(=O)N3CCN(c4ccc(Cl)c(F)c4)[C@@H](C)C3)NC(=O)NC2=O)n1` (stereo partly drawn) [compound 454, 5-[3-[(3S)-4-(4-chloro-3-fluoro-phenyl)-3-methyl-piperazin-1-yl]-3-oxo-propyl]-5-(6-methyl-2-pyridyl)imidazolidine-2,4-dione]: the IC50 came to 2.98 µM in experiment [1] and 35 nM in experiment [2].

For the molecule `CCC1(CC(C)C(=O)N2CCN(c3cncc(F)c3)[C@@H](C)C2)NC(=O)NC1=O` (stereo partly drawn) [compound 360, 5-ethyl-5-[3-[(3S)-4-(5-fluoro-3-pyridyl)-3-methyl-piperazin-1-yl]-2-methyl-3-oxo-propyl]imidazolidine-2,4-dione], the values for the IC50 in experiment [1] and in experiment [2] were above 20 µM and 119 nM, respectively.

Turning to `C[C@H]1CN(C(=O)CCC2(C3CC3)NC(=O)NC2=O)CCN1c1cccc(-c2cncnc2)c1` (stereo partly drawn) [compound 377, 5-cyclopropyl-5-[3-[(3S)-3-methyl-4-(3-pyrimidin-5-ylphenyl)piperazin-1-yl]-3-oxo-propyl]imidazolidine-2,4-dione], the IC50 is above 20 µM in experiment [1] and 700 nM in experiment [2].

For the molecule `C[C@H]1CN(C(=O)CCC2(C3CC3)NC(=O)NC2=O)CCN1c1cnc2ccccc2c1` (stereo partly drawn) [compound 289, 5-cyclopropyl-5-[3-[(3S)-3-methyl-4-(3-quinolyl)piperazin-1-yl]-3-oxo-propyl]imidazolidine-2,4-dione], the IC50 in experiment [1] was above 4 µM; in experiment [2], 97 nM.

For `CC(CC1(C2CC2)NC(=O)NC1=O)C(=O)N1CCN(c2ccc(F)cc2)[C@@H](C)C1` (stereo partly drawn) [compound 343, 5-cyclopropyl-5-[3-[(3S)-4-(4-fluorophenyl)-3-methyl-piperazin-1-yl]-2-methyl-3-oxo-propyl]imidazolidine-2,4-dione], the IC50 in experiment [1] was above 20 µM; in experiment [2] it was 22 nM.
